Laboratory results: patent publication EP4786487A1, “PEPTIDE” (Peptidream Inc, priority 2023, dated 2025)
Starred links: 1 amine or outer side, 2 acyl side, 3 side chain; linkers in the order of their positions; H or OH if unused. Positions of bridges follow the written chain, without caps; N, C: chain ends. Non-standard residues stand in square brackets, D forms with d. Residues, ends and D or L forms follow the SMILES beside them. Phe(3-OCH2COOH) = N[C@@H](Cc1cccc(OCC(=O)O)c1)C(=O)O; Phe(4-COOH) = N[C@@H](Cc1ccc(C(=O)O)cc1)C(=O)O; Gly(N(CH2)3COOH) = O=C(O)CCCNCC(=O)O; X1 = CCCCCCC[C@H](N[*:1])C(=O)[*:2]; NMeF = CN[C@@H](Cc1ccccc1)C(=O)O; NMeA = CN[C@@H](C)C(=O)O

Legend:
[1] = biological target: T1, activin A (Homo sapiens, UniProt P08476); assay: Reporter gene assay for myostatin signaling in HEK-Blue TGF-β Cells, activin A; assay type: cell-based; details: activin A 3 ng/mL
T1 construct: purchased R&D systems 338-AC-010/CF
T1 sequence (P08476 311-426): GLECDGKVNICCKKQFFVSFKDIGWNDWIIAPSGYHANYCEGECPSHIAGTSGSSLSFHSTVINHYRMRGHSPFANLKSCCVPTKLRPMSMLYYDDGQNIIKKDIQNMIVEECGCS
Protocol: In this Example, the in vitro activity of the peptide Myostatin_99_v145 (SEQ ID NO: 30) was evaluated using a reporter gene assay for myostatin signaling.
HEK-Blue (trademark) TGF-β Cells (hkb-tgfbv2, InvivoGen) were cultured in DMEM High glucose GlutaMAX (10569010, Thermo) containing 10% FBS (Heat-inactivated FBS QUALIFIED, 10270-106, Gibco), […] Normocin (ant-nr-05, InvivoGen), […] Zeocin (ant-zn-05, InvivoGen), and 50 µg/mL Gentamicin (11980-14, Nacalai Tesque). The cultured HEK-Blue (trademark) TGF-β Cells were suspended in an assay medium containing DMEM High glucose GlutaMAX, 50 µg/mL Gentamicin, and 1% bovine serum albumin (A7030, Sigma). The cells were seeded at 4 × 10^4 cells/well onto a 96-well plate (356461, Corning), namely BioCoat poly-D-lysine multi-well plate, and allowed to stand for 30 min. […]
To each well of a UV-Star µClear 96-well (655801, Greiner), 180 µL of Detection buffer (prepared by diluting, with 17.64 mL of distilled water, 180 µL of QUANTI-Blue buffer and 180 µL of QUANTI-Blue solution) was dispensed. […] The plate was covered and incubated in a CO2 incubator for 3 to 5 hours, and absorbance was measured (Envision 2104, PerkinElmer, 620 nm/bp 40 nm). Based on the absorbance, IC50 values of the peptide were calculated using software (Prism 9, GraphPad).

[2] = system: B10-mdx mice; assay: Orally administered peptide, improvement of muscle strength in B10-mdx mice; assay type: in vivo, C57BL/10-mdx/Jcl mice; details: oral administration 65 and 200 mg/kg once a week, 4 times, after fasting; Fig. 6
Protocol: In this Example, the effect of the peptide Myostatin_99_v145 (SEQ ID NO: 30) was evaluated on improvement of muscle strength when the peptide was orally administered to DMD model mice.
B10-mdx mice were used as the DMD model mice. To five-week-old female C57BL/10-mdx/Jcl mice (CLEA Japan, Inc.; NPL 17), the peptide or solvent control (Vehicle) PBS was subcutaneously administered once a week for 4 weeks. In addition, the peptide or the solvent control, namely 30% Labrasol/PBS, was administered orally to the DMD model mice once a week after fasting in a total of 4 times.
Using a smart-type grip strength meter for rats and mice (MK-380V; Muromachi Kikai Co., Ltd.), forelimb and hindlimb grip strength measurements were performed on the day of completion of the acclimation period (grouping day; 5-week-old), and on Day 7 (6-week-old), Day 14 (7-week-old), Day 20 (8-week-old), and Day 27 (9-week-old). The measurements were conducted with individual identification numbers blinded so that the examiner was unaware of the test conditions of the mice. The grip strength was measured seven times consecutively, and the average of five points, excluding the two points: the highest and lowest values, was used as individual data.

**Q.** `CCCCCCC[C@@H]1NC(=O)[C@H](Cc2ccccc2)N(C)C(=O)[C@H](CCCNC(=N)N)NC(=O)[C@H](Cc2ccc(C(=O)O)cc2)NC(=O)[C@H](Cc2cccc(OCC(=O)O)c2)NC(=O)[C@H](C)N(C)C(=O)[C@H]([C@@H](C)CC)NC(=O)[C@H](Cc2ccccc2)N(C)C(=O)[C@H](Cc2ccc(O)cc2)NC(=O)[C@H](Cc2c[nH]c3ccccc23)NC(=O)[C@H](C)NC(=O)CN(CCCC(=O)O)C(=O)CSC[C@H](C(=O)O)NC(=O)[C@H](Cc2ccccc2)N(C)C(=O)[C@H](C)N(C)C1=O` [Myostatin_99_v145] ({CH2CO}-[Gly(N(CH2)3COOH)]AWY[NMeF]I[NMeA][Phe(3-OCH2COOH)][Phe(4-COOH)]R[NMeF][X1][NMeA][NMeF][dC]-OH; thioether N-15) was tested. Which IC50 ([1]; read-out: IC50 (nmol/L) Activin A) did it give?
**A.** > 20000 nmol/L

**Q.** And the IC90 ([1]; read-out: IC90 (nmol/L) Activin A)?
**A.** > 20000 nmol/L

**Q.** What about the “time-course change in grip strength” value [2] of the same compound?
**A.** continuous increase in grip strength was observed in a dose-dependent manner
